Read-outs that look alike come from different tables or passages of the source.
What was measured:
Human PDE7B = Human PDE7B (Homo sapiens, UniProt Q9NP56); assay: Phosphodiesterase Assay (SPA); type: biochemical
[1] = molecular target: T1, human GABAA receptor (α1β2γ2) (Homo sapiens, UniProt P14867+P18507+P47870); assay: GABA Patch Clamp Assay (agonist, antagonist, PAM modes); type: cell-based
T1 construct: expressed in transfected cells
From the text: 151 GABA Patch Clamp Assay
152 Compound effects on the human GABAA recepto r (α1β2γ2), stably express ed in human embryonic
153 kidney (HEK) cells, were examined in three modes of action: agonist, antagonist and positive
154 allosteric modulation (PAM) modes. Chloride currents evoked by the activation of the GABAA
155 recepto r wer e reco rded in the whole- cell patch clamp configuration with the automated Qube384®
156 platform (Sophion Bioscience A/S, Baltorpvej, Denmark). The intracellular solution contained (in
157 mM): CsF 90, CsCl 50, MgCl2 2 EGTA 10, HEPES 10, pH adjusted to 7.2 with CsOH. The
158 extracellular solution contained (in mM): NaCl 138, KCl 5.3, CaCl2 5, MgCl2 0.49, HEPES 10,
160 osmolarity of the internal and external solutions were adjusted with sucrose to 300 mOsm and 305
162 Compounds were dissolved and initially diluted in dimethyl sulfoxide (DMSO), with a final
163 dilution in external sol ution to generate final working concent rations. The final DMSO
164 concentration in all experiments was 0.33% (v/v).
165 Cells and solutions were loaded into the Qube384 10X Qchip (10 recording wells per well, 384
166 wells per QChip). After whole-cell con figuration was achiev ed by negativ e pressure pulse, cells
167 were maintained at a holding potential of - 80 mV throughout the experiment. To avoid
168 desensitization and current rundown due to persistent activation of GABAA, a “stacked pipette”
169 approach was utilized to ensure only a brief exposure of the cells to GABA-containing solutions.
170 In this approach, the perfusion pipettes drew from two liquid sources, first from extracellular
171 solution (14 µL), and next from a GABA-containing solution (7 µL). When dispensed into the
173 extracellular solution. At the start of the experiment, a baseline GABAA cu rrent was established
174 for each well in response to activation by 40 µM GABA. Each subsequent test condition was
175 normalized ag ainst this baseline GABA cu rrent on a per w ell basis.
176 Agonist effects were measured by recording the current evoked by the test article in the absen ce
177 of GABA. Agonism (%) was calculated relative to the current produced by 40 µM GABA for
178 each well: [% Agonism = (Itest article / I 40µM GABA) * 100%].
179 Antagonist effects of test article were examined i n the presence of 40 µM GABA following a 4
180 min incubation in test article. Antagonism was calculated relative to the current produced by 40 […]
182 allosteric modulation (%) by test article was detected when current was enhanced relative to the […]
184 EC50/ IC 50 values were calculated by fitting concentration response curve data to a 4- p aram eter […]
190 determined using a four-parameter logistic fit. […]
193 response. An apparent KB value for antagonist activity was calculated using the following […]

T1 sequence (P14867 28-456): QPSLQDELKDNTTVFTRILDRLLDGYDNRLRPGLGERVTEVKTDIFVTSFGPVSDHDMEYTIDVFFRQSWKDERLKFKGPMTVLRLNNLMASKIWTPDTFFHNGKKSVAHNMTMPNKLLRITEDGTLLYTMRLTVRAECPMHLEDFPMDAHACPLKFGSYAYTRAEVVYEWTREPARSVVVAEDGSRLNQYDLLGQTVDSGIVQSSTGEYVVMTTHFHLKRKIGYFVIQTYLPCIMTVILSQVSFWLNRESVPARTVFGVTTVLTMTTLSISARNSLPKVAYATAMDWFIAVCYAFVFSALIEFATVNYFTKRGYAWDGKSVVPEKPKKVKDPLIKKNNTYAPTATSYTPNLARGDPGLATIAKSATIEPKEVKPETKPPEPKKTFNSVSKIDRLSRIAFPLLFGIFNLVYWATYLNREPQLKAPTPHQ
T1 sequence (P47870 25-512 limits assumed): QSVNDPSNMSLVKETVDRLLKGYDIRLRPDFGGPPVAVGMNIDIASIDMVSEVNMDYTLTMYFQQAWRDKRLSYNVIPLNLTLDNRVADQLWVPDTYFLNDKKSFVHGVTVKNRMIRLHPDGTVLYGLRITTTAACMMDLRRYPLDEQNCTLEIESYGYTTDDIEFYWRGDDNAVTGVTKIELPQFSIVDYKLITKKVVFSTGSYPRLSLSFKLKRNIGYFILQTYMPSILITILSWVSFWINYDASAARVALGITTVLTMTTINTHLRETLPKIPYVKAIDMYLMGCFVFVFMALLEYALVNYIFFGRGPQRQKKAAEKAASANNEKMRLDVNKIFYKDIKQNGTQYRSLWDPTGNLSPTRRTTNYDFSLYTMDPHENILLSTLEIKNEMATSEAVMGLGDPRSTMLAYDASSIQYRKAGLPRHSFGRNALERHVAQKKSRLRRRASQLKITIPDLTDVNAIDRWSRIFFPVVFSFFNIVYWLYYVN
T1 sequence (P18507 40-475): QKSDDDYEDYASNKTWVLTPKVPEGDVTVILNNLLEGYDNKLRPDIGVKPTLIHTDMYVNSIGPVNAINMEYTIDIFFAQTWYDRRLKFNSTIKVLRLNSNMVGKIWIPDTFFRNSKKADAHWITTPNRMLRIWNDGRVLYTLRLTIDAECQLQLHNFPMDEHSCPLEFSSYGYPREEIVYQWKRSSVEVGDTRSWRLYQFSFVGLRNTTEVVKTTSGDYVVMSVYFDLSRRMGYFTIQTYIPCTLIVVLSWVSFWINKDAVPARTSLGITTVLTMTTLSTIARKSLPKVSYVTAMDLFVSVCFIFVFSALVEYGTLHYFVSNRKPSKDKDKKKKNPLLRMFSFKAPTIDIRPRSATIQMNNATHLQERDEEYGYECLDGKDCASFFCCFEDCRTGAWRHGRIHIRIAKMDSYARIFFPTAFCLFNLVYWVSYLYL
Human PDE7B, sequence (Q9NP56 whole entry): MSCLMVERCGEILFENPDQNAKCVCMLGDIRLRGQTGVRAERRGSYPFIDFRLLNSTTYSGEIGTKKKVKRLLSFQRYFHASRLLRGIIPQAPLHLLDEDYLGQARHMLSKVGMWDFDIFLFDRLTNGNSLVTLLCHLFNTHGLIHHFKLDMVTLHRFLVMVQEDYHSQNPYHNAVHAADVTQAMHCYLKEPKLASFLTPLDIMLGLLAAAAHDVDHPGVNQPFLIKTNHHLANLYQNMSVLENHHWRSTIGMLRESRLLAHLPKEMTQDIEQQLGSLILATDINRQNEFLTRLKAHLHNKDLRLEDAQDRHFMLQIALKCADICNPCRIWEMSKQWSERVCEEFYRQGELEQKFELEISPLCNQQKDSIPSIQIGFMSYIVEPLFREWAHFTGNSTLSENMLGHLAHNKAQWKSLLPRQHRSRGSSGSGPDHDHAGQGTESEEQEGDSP

`CCOc1cc(C)nc(N(CCOC)S(=O)(=O)c2ccc(NCc3c(F)cncc3F)nc2OC)n1` [Compound 1] was tested, and the IC50 (Human PDE7B) was 6.27 µM, the EC50 [1] was over 100 µM and the “%Activation@10μM” value ([1]; GABAa, 10μM) was 0%. For the same compound, the inhibition at 10 µM ([1]; GABAa, 10μM) was 4% and the EC50 ([1]; read-out: PAM EC50, GABAa, positive allosteric modulation mode) was over 100 µM.

Reference: PMC10517971, “An inverse agonist of orphan receptor GPR61 acts by a G protein-competitive allosteric mechanism” (Nature Communications, 2023)
